US8455469B2, “Use of norgestimate as a selective inhibitor of TRPC3, TRPC6 and TRPC7 ion channels” (Sanofi, priority 2007, dated 2013)

How the values were obtained:
Type in all cases: cell-based
V1 receptor = biological target: T1, V1 receptor (Rattus norvegicus, UniProt P30560); assay: Calcium imaging of fura-2-loaded A7r5 cells stimulated with AVP; details: 10 μM, 5 min preincubation, calcium-free solution, 100 nM AVP
T1 construct: endogenous in cells; host or cells: A7r5 (rat aortic smooth muscle)
T1 sequence (P30560 whole entry): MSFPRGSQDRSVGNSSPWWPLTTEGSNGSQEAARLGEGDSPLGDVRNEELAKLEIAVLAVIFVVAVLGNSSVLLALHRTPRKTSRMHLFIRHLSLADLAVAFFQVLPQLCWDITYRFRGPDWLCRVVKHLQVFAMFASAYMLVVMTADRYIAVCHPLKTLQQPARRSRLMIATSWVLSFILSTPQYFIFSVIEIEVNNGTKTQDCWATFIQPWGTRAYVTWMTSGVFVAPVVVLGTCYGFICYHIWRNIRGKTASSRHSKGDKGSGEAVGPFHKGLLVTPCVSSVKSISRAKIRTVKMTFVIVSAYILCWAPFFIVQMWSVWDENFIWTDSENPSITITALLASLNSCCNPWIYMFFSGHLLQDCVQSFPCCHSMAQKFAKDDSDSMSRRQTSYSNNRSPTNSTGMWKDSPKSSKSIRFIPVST
Protocol: The A7r5 cell line (derived from rat thoracic aorta smooth muscle cells) is a model system to investigate endogenous TRPC channels (Jung et al., 2002; Soboloff et al., 2005). The channels were indirectly stimulated by Arg^8-vasopressin (AVP), a vasoconstricting peptide that activates the endogenous vasopressin V1A receptor in these cells (Thibonnier et al., 1991).
Time-dependent changes of [Ca^2+]i; of fura-2-loaded A7r5 cells. Cells were preincubated with or without (control) 10 μM norgestimate (NG) in calcium-free standard extracellular solution (1 mM EGTA) for 5 min before stimulating the V1 receptor by application of 100 nM AVP. Data are represented as means of 33 cells (control) and 36 cells (10 μM norgestimate). Measurements were performed using a standard imaging setup (TILL Photonics, Gräfelfing, Germany).

TRPC6 = biological target: T2, TRPC6 (Homo sapiens, UniProt Q9Y210); assay: Whole-cell patch clamp, AlF4- activated TRPC6 HEK293 cells; details: 10 μM
T2 construct: expressed in transfected cells; host or cells: HEK293 (inducible expression)
T2 sequence (Q9Y210 1-931): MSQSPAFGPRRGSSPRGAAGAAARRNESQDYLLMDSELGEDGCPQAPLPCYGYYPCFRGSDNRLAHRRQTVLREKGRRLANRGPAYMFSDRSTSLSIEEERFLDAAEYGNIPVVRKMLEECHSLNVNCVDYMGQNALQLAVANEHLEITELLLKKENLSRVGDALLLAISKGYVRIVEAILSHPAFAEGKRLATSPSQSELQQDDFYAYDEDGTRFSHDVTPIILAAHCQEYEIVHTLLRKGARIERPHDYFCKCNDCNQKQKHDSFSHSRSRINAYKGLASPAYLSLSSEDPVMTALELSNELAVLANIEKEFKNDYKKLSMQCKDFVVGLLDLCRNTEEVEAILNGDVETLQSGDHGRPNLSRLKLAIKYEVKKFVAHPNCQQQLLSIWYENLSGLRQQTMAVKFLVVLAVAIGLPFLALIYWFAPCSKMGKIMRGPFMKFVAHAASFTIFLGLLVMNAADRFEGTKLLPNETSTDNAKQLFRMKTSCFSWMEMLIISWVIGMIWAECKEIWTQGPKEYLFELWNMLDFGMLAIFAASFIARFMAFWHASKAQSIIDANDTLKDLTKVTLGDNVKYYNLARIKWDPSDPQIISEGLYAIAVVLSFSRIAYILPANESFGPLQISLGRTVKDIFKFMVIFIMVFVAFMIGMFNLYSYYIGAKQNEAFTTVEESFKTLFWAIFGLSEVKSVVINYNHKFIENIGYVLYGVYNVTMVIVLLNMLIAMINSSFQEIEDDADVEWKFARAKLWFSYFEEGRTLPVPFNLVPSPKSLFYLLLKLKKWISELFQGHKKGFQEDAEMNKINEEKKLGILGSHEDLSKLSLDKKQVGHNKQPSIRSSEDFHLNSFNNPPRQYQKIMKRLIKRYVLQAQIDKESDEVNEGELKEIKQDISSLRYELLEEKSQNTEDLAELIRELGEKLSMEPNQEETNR
Description: Inhibition of TRPC6- and TRPC5-mediated Ca^2+ -influx by norgestimate monitored in fluorometric experiments with cell populations was validated and compared with whole-cell patch clamp recordings of single cells. Channels were indirectly excited with the same stimulus for better comparability of the norgestimate effect. Aluminium tetrafluoride (AIF^4−) applied intracellularly via the patch pipette activates G-proteins by mimicking GTP (Sternweis & Gilman, 1982; Bigay et al., 1987). Subsequently TRPC channels are stimulated and mediate non-specific cationic currents (FIG. 3 A, B) When 10 μM norgestimate were applied to activated TRPC6 channels, 89.9 ±3.1% (n=15) of the current measured at resting membrane potential was blocked. This inhibition was reversible as current amplitude increased after norgestimate wash out (FIG. 3 A).
Effect of 10 μM norgestimate (NG) on whole-cell currents evoked by AlF4^− infusion into induced TRPC6— (A) and TRPC5 HEK 293 (B) cells. Whole cell currents recorded at −70 mV (left panels) and the corresponding current-voltage (I-V) relationships are shown (right panels). […] The curves were obtained during voltage ramps from −100 to +80 mV. (C) Statistical analysis of the norgestimate effect on TRPC5— and TRPC6-mediated currents. 10 μM norgestimate inhibit 25.9±5.7% (n=20) of TRPC5-mediated currents and 89.9±3.1% (n=15) of TRPC6-mediated currents (P<0.001, Wilcoxon test, two-sided).

[1] = test system: protease-activated receptor (PAR); assay: Calcium release from ER in non-induced TRPC5 HEK293 FITR cells (PAR antagonism control); details: 30 μM norgestimate, 10 min preincubation
Protocol: When these experiments were performed, no direct physiological stimuli of TRPC4 and TRPC5 were known. Therefore, both channels had to be stimulated indirectly, e.g. by application of trypsin, a protease-activated receptor (PAR) stimulating protease. […] PAR are G protein-coupled and their activation leads to calcium store depletion from endoplasmic reticulum (ER). This so called phosphatidylinositol (PI) response is independent of the channel's presence but consequently leads to activation of store-operated channels like TRPC4 and TRPC5. Basic prerequisite to measure the effect of norgestimate on both channels under these conditions is to exclude PAR antagonism of this potential channel inhibitor. […] Kinetics and quantity of calcium store release in cells treated with 30 μM norgestimate were not changed compared to untreated cells. Therefore, norgestimate is not a PAR antagonist and TRPC4 and TRPC5 activation via PAR stimulation is suitable to measure the channels inhibition by norgestimate.

## C#C[C@]1(OC(C)=O)CC[C@H]2[C@@H]3CCC4=C/C(=N/O)CC[C@@H]4[C@H]3CC[C@@]21CC [norgestimate, D-17β-acetoxy-B-ethyl-17α ethinyl-gon-4-en-3-one oxime]
V1 receptor
  effect on V1 receptors (AVP-evoked [Ca2+]i): does not generally suppress
TRPC6
  reversibility of TRPC6 current inhibition after wash out: reversible
TRPC6; current at resting membrane potential (-70 mV), n=15
  TRPC6 current blocked: 89.9 ±3.1%
[1]
  kinetics and quantity of calcium store release compared to untreated cells: not changed
